Target: Recombinant human KIF18A (1-467His-tagged) protein (Homo sapiens (Human), UniProt Q8NI77)
Assay: KIF18A enzyme assay (microtubule-stimulated ATPase activity, ADP-Glo)
Type: biochemical
Details: 30 nM KIF18A, ATP 75 μM, read-out: inhibitory activity against KIF18A IC50
Procedure: Biological Example 1. Assay for In Vitro Inhibition of Enzymatic Activity of KIF18A by Compounds of the Present Invention
KIF18A enzyme assay: The enzymatic activity of KIF18A after treatment with the compounds was measured by an assay of microtubule-stimulated ATPase activity. ADP generated from the ATPase reaction was measured in this assay. The compounds were serially diluted 2-fold in DMSO over a range of 22 concentration points. Recombinant human KIF18A (1-467His-tagged) protein was expressed using a baculovirus system. Concentrations of KIF18A protein, microtubules, and ATP in the reaction were optimized for a standardized homogenous enzyme assay using an ADP-Glo kinase/ATPase assay kit. A reaction buffer [(15 mM Tris, pH 7.5), 10 mM MgCl2, 0.01% PluronicF-68, 1 μM paclitaxel, and 30 μg/mL pig microtubules] was prepared. The compounds and KIF18A protein (30 nM) were added to the prepared reaction buffer, and the reaction mixture was incubated at room temperature for 15 min, followed by addition of ATP (Km, 75 μM). The resulting reaction mixture was incubated at room temperature for another 15 min. 5 μL of ADP-Glo reagent and 2.5 μL of the reaction mixture were mixed and the resulting mixture was incubated at room temperature for 40 min. 10 μL of ADP-Glo detection reagent was added and the mixture was incubated at room temperature for 40 min. Luminescence was measured using a microplate reader and compared with that of the DMSO group, and then the inhibition percentages and IC50 values of the compounds were calculated.

Chain of Recombinant human KIF18A (1-467His-tagged) protein (Q8NI77 1-467): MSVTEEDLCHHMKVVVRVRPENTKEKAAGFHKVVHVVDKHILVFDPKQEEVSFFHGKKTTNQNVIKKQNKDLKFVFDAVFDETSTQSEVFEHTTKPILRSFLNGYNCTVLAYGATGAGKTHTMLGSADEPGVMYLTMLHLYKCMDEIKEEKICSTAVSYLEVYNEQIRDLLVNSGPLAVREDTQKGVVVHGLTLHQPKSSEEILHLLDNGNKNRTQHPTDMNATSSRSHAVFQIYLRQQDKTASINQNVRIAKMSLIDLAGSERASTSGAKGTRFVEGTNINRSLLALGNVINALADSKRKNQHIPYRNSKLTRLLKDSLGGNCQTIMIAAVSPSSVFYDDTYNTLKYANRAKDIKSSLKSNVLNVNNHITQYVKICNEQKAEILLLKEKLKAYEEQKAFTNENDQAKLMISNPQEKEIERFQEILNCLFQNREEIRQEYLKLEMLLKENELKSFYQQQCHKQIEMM
Chain of Recombinant human KIF18A (1-467His-tagged) protein (P02550 whole entry partner): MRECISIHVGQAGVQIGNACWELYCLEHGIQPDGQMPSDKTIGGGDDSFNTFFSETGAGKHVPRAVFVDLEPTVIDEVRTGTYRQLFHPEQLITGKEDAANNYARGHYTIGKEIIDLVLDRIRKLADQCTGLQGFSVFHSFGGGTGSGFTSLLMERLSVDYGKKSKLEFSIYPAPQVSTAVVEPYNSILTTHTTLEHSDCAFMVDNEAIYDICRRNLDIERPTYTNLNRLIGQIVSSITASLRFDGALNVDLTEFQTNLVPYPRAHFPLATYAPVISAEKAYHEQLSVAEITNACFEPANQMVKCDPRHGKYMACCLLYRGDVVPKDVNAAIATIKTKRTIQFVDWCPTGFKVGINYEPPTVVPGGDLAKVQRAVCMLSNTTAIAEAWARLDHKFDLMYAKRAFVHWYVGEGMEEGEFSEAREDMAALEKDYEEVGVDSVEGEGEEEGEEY
Chain of Recombinant human KIF18A (1-467His-tagged) protein (P02554 whole entry partner): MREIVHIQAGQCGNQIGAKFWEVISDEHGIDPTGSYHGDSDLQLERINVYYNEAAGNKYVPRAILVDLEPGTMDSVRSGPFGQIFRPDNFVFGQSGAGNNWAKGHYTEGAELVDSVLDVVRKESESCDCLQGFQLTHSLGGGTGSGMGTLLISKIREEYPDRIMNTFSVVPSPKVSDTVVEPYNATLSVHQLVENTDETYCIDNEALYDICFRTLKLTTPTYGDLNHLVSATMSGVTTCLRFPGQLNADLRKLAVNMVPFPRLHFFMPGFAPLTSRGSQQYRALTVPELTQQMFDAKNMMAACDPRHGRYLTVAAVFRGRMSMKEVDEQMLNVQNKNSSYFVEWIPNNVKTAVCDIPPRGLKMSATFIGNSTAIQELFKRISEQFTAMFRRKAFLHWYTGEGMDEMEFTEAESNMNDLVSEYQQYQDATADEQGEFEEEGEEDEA

SMILES	IC50 [nM]
Cn1ccc2cc(C(=O)Nc3ccc(NS(=O)(=O)CCO)cc3N3CCC4(CC3)CC4)cc(N3CCC(F)CC3)c21 [Compound 425]	≤ 100
C[C@H](CO)S(=O)(=O)Nc1ccc(NC(=O)c2cc3ccoc3c(N3CCC(F)(F)CC3)n2)c(N2CCC3(CC2)CC3)c1 [Compound 238]	≤ 100
CN1CCc2cc(NC(=O)c3ccc(NS(=O)(=O)CCO)cc3N3CCC4(CC3)CC4)cc(OC3CCC3)c21 [Compound 263]	≤ 100
O=C(Nc1ccc(NS(=O)(=O)CCO)cc1N1CCC2(CC1)CC2)c1cc2c(c(N3CCOCC3)n1)OCC2 [Compound 108]	≤ 100
O=C(Nc1cc2ccnn2c(N2CCC(F)(F)CC2)n1)c1ccc(NS(=O)(=O)CCO)cc1N1CCC2(CC1)CC2 [Compound 534]	≤ 100
C[C@@H](CO)S(=O)(=O)Nc1ccc(C(=O)Nc2cc3c(c(N4CCC(F)(F)CC4)c2)N(C)CC3)c(N2CCC3(CC2)CC3)c1 [Compound 269]	≤ 100
C[C@@H](CO)S(=O)(=O)Nc1ccc(NC(=O)c2cc3c(c(N4CCC(F)(F)CC4)c2)N(C)CC3)c(N2CCC3(CC2)CC3)c1 [Compound 301]	≤ 100
O=C(Nc1ccc(NS(=O)(=O)CCO)cc1N1CCC2(CC1)CC2)c1cc2c(c(N3CCC(F)CC3)c1)OCC2 [Compound 41]	≤ 100
C[C@H](CO)S(=O)(=O)Nc1ccc(NC(=O)c2cc(N3CCC(F)(F)CC3)c3c(ccn3C)c2)c(N2CCC3(CC2)CC3)c1 [Compound 430]	≤ 100
O=C(Nc1ccc(NS(=O)(=O)CCO)cc1N1CCC2(CC1)CC2)c1cc(N2CCC(F)CC2)c2occc2c1 [Compound 169]	≤ 100
CN1CCc2cc(C(=O)Nc3ccc(NS(=O)(=O)CCO)cc3N3CCC4(CC3)CC4)cc(N3CCC(F)CC3)c21 [Compound 297]	≤ 100
C[C@@H](CO)S(=O)(=O)Nc1ccc(NC(=O)c2cc3c(c(N4CCC(F)(F)CC4)n2)N(C)CC3)c(N2CCC3(CC2)CC3)c1 [Compound 365]	≤ 100
O=C(Nc1cc(N2CCC(F)(F)CC2)c2ccccc2c1)c1ccc(NS(=O)(=O)CCO)cc1N1CCC2(CC1)CC2 [Compound 529]	100 to 500
C[C@@H](CO)NS(=O)(=O)c1ccc(C(=O)Nc2cc3c(c(N4CCC(F)(F)CC4)n2)OCC3)c(N2CCC3(CC2)CC3)c1 [Compound 93]	≤ 100
CN1CCc2cc(C(=O)Nc3ccc(NS(=O)(=O)CCO)cc3N3CCC4(CC3)CC4)cc(OCCC(F)(F)F)c21 [Compound 293]	≤ 100
O=C(Nc1ccc(NS(=O)(=O)CCO)cc1N1CCC2(CC1)CC2)c1cc2c(c(N3CCC(F)CC3)n1)OCC2 [Compound 105]	≤ 100
CN1CCc2cc(NC(=O)c3ccc(NS(=O)(=O)CCO)cc3N3CCC4(CC3)CC4)cc(N3CCC(F)(F)CC3)c21 [Compound 289]	≤ 100
O=C(Nc1cc(N2CCC(F)(F)CC2)c2ncsc2c1)c1ccc(NS(=O)(=O)CCO)cc1N1CCC2(CC1)CC2 [Compound 519]	≤ 100
Cn1ccc2cc(C(=O)Nc3ccc(NS(=O)(=O)CCO)cc3N3CCC4(CC3)CC4)nc(OCCC(F)(F)F)c21 [Compound 485]	≤ 100
CN1CCc2cc(NC(=O)c3ccc(NS(=O)(=O)CCO)cc3N3CCC4(CC3)CC4)nc(N3CCC(F)(F)CC3)c21 [Compound 321]	≤ 100
CC(C)(CO)Nc1cc(C(=O)Nc2ccc(S(=O)(=O)NCCO)cc2N2CCC3(CC2)CC3)cc2ccoc12 [Compound 187]	≤ 100
O=C(Nc1ccc(NS(=O)(=O)CCO)cc1N1CCC2(CC1)CC2)c1cc2ccoc2c(N2CCC(F)CC2)n1 [Compound 233]	≤ 100
Cn1ccc2cc(C(=O)Nc3ccc(NS(=O)(=O)CCO)cc3N3CCC4(CC3)CC4)nc(NC(C)(C)CO)c21 [Compound 491]	≤ 100
CN1CCc2cc(C(=O)Nc3ccc(S(=O)(=O)NCCO)cc3N3CCC4(CC3)CC4)cc(OCCC(F)(F)F)c21 [Compound 309]	≤ 100

Continued, values first:

IC50 [nM]	SMILES
≤ 100	C[C@H](CO)S(=O)(=O)Nc1ccc(C(=O)Nc2cc(N3CCC(F)(F)CC3)c3c(ccn3C)c2)c(N2CCC3(CC2)CC3)c1 [Compound 398]
≤ 100	CN1CCc2cc(NC(=O)c3ccc(S(=O)(=O)NCCO)cc3N3CCC4(CC3)CC4)nc(N3CCOCC3)c21 [Compound 332]
≤ 100	C[C@@H]1CN(c2cc(NC(=O)c3ccc(NS(=O)(=O)CCO)cc3N3CCC4(CC3)CC4)cc3ccoc23)CCO1 [Compound 130]
≤ 100	C[C@@H](CO)S(=O)(=O)Nc1ccc(C(=O)Nc2cc(N3CCC(F)(F)CC3)c3c(ccn3C)c2)c(N2CCC3(CC2)CC3)c1 [Compound 397]
≤ 100	O=C(Nc1ccc(S(=O)(=O)NCCO)cc1N1CCC2(CC1)CC2)c1cc2ccoc2c(N2CCC(F)(F)CC2)n1 [Compound 241]
≤ 100	C[C@@H](CO)NS(=O)(=O)c1ccc(NC(=O)c2cc(N3CCC(F)(F)CC3)c3c(ccn3C)c2)c(N2CCC3(CC2)CC3)c1 [Compound 445]
≤ 100	C[C@@H]1CN(c2nc(C(=O)Nc3ccc(S(=O)(=O)N[C@@H](C)CO)cc3N3CCC4(CC3)CC4)cc3c2N(C)CC3)CCO1 [Compound 383]
≤ 100	Cn1ccc2cc(NC(=O)c3ccc(S(=O)(=O)NCCO)cc3N3CCC4(CC3)CC4)nc(N3CCC4(CC4)C3)c21 [Compound 470]
≤ 100	O=C(Nc1cc2ccoc2c(N2CCC(F)(F)CC2)n1)c1ccc(S(=O)(=O)NCCO)cc1N1CCC2(CC1)CC2 [Compound 209]
≤ 100	C[C@@H]1CN(c2cc(C(=O)Nc3ccc(NS(=O)(=O)[C@@H](C)CO)cc3N3CCC4(CC3)CC4)cc3ccn(C)c23)CCO1 [Compound 431]
≤ 100	Cn1ccc2cc(C(=O)Nc3ccc(S(=O)(=O)NCCO)cc3N3CCC4(CC3)CC4)nc(N3CCC(C)(F)C3)c21 (stereo not shown) [Compound 504]
≤ 100	O=C(Nc1cc2c(c(N3CC(F)(F)C3)n1)OCC2)c1ccc(S(=O)(=O)NCCO)cc1N1CCC2(CC1)CC2 [Compound 84]
≤ 100	O=C(Nc1cc2c(c(OCCC(F)(F)F)n1)OCC2)c1ccc(S(=O)(=O)NCCO)cc1N1CCC2(CC1)CC2 [Compound 85]
≤ 100	O=C(Nc1cc2c(c(N3CCC(F)CC3)c1)OCC2)c1ccc(S(=O)(=O)NCCO)cc1N1CCC2(CC1)CC2 [Compound 25]
≤ 100	C[C@H]1CN(c2nc(C(=O)Nc3ccc(NS(=O)(=O)CCO)cc3N3CCC4(CC3)CC4)cc3c2N(C)CC3)CCO1 [Compound 355]
≤ 100	Cn1ccc2cc(NC(=O)c3ccc(S(=O)(=O)NCCO)cc3N3CCC4(CC3)CC4)cc(N3CCC(F)(F)CC3)c21 [Compound 401]
≤ 100	C[C@H](CO)NS(=O)(=O)c1ccc(NC(=O)c2cc(N3CCC(F)(F)CC3)c3c(ccn3C)c2)c(N2CCC3(CC2)CC3)c1 [Compound 446]
≤ 100	O=C(Nc1ccc(S(=O)(=O)NCCO)cc1N1CCC2(CC1)CC2)c1cc(N2CCC3(CC3)C2)c2occc2c1 [Compound 182]
≤ 100	C[C@H]1CN(c2cc(NC(=O)c3ccc(S(=O)(=O)NCCO)cc3N3CCC4(CC3)CC4)cc3c2OCC3)CCO1 [Compound 19]
≤ 100	C[C@@H]1CN(c2nc(NC(=O)c3ccc(S(=O)(=O)NCCO)cc3N3CCC4(CC3)CC4)cc3ccn(C)c23)CCO1 [Compound 466]
≤ 100	Cn1ccc2cc(C(=O)Nc3ccc(S(=O)(=O)NCCO)cc3N3CCC4(CC3)CC4)nc(N3CCC(F)(F)CC3)c21 [Compound 497]
≤ 100	Cn1ccc2cc(C(=O)Nc3ccc(NS(=O)(=O)CCO)cc3N3CCC4(CC3)CC4)nc(N3CC(F)(F)C3)c21 [Compound 484]
